Assay results taken from patent US20120265121A1, “PHTHALOCYANINE-BASED ANTIFUNGAL AGENTS” (CASE WESTERN RESERVE UNIVERSITY, priority 2011, published 2012).

Assays:
[1] = test system: C. albicans (strain SC-5134); assay: FITC-labeled Annexin V staining of protoplasts (phosphatidylserine externalization); assay type: cell-based, Candida albicans; conditions: positive controls: 20 mM H2O2 or 60 μM acetic acid, 4 hr
Protocol: Cells were then incubated for 4 hr before staining with FITC-labeled Annexin V. FIG. 4(a) provides confocal images of FITC-labeling of cells that had been treated with H2O2 or Pc 4-PDT. Scale bar, 20 μm. FIG. 4(b) provides a bar graph showing the results. For each experiment over 50-100 protoplasts cells were counted per sample. […] Cells were counted by eye using a Zeiss AxiovertTM S100 inverted epifluorescence microscope. Values represent the mean±S.E. from at least three independent experiments. […] Apoptosis Analyses: (A) FITC-labeled Annexin V staining-To assess the externalization of phosphatidylserine, protoplasts of C. albicans were stained with FITC-labeled Annexin V using the Annexin V-FLUOS staining kit (Roche, Germany) with minor modifications. Madeo et al., J Cell Biol 139:729-734 (1997); Park et al., Biochem Biophys Res Commun 394:170-172 (2010). Briefly, control and treated cells were washed three times with 1× PBS before incubating at 37° C. for 30 min in a protoplasting solution (50 mM KH2PO4, 5 mM EDTA and 50 mM DTT). Then cells were digested at 37° C. for 45 min in an enzyme solution (50 mM K2HPO4, 40 mM 2-mercaptoethanol, 3 μg/mL Chitinase, 1.8 μg/mL […], 0.15 mg/mL Zymolyase and 2.4 M sorbitol). 1× PBS was added to each sample and incubated for 30 min at room temperature in all experiments. Protoplasts were then incubated with 100 μL of Annexin V-FLUOS labeling solution for 15 min at 25° C. FITC-labeled Annexin V fluorescence was detected by both widefield (Leica DMI6000B microscope; Leica Microsystems, Inc., Bannockburn, Ill., USA) and confocal fluorescence microscopy.

[2] = test system: C. albicans (strain SC-5134); assay: Chromatin condensation by confocal microscopy; assay type: cell-based, Candida albicans; conditions: highest dose of Pc 4-PDT or peroxide, 24 hr after treatment
Protocol: Confocal Microscopy: To investigate the uptake and localization of Pc 4, cells in standard growth medium plus 10% Fetal Bovine Serum (FBS) were loaded with 0.2 μM Pc 4 and incubated for 16 to 18 hr. Thirty minutes prior to imaging Pc 4, 50 nM MitoTracker Red (Invitrogen, Carlsbad, Calif., USA) or 50 μg/mL AlexaFluor 488-conjugated Concanavalin (Con) A (Invitrogen, Carlsbad, Calif., USA) and/or 10 μg/mL Hoechst 33342 (Invitrogen, Carlsbad, Calif., USA) was loaded onto cells. Five to 10 μL of stained cells were placed on a slide with a glass coverslip and all images acquired using an UltraVIEW VoX spinning disk confocal system (PerkinElmer, Waltham, Mass., USA), which was mounted on a Leica DMI6000B microscope (Leica Microsystems, Inc., Bannockburn, Ill., USA) equipped with a HCX PL APO 100×/1.4 oil immersion objective. Confocal images of Pc 4 fluorescence, MitoTracker Red, ConA (or FITC-labeled Annexin V) and Hoechst 33342 were collected using solid-state diode lasers, with 640-nm, 561-nm, 488-nm and 405-nm excitation light, respectively, and with appropriate emission filters.

Row | SMILES | Annexin V positive cells [1] | chromatin condensation [2]
1 | CC(=O)O [acetic acid] | ~27% | 
2 | OO [H2O2, hydrogen peroxide, reference compound] | ~27% | detected
